Data on 1 compound can be found in PMC9747717, “A novel small molecule inhibitor of human Drp1” (Scientific Reports, 2022).

Test [1] has as its system HL-1 cells. Description: Mitochondrial morphology in HL-1 cells under simulated ischaemia-reperfusion injury. Format: cell-based, Murine. As to conditions: 50 µM, DMSO 63.14 ± 8.12%. As for the experimental part: (§1) HL-1 cells were plated in 24-well plate pre-coated with 5 μg/mL human fibronectin (Merck Millipore, MA, USA) in 0.02% porcine gelatin solution (Sigma-Aldrich, MA, USA). Cells were maintained in Claycomb media (Sigma-Aldrich) supplemented with 0.1 mM (±)-norepinephrine (+)-bitartrate salt (Sigma-Aldrich), 2 mM GlutaMAX (Thermo Fisher Scientific, MA, USA), 100 μg/mL penicillin/streptomycin (Thermo Fisher Scientific) and 10% non-heat inactivated foetal bovine serum (FBS) (Bovogen Biologicals, Victoria, Australia). The simulated ischaemia–reperfusion injury was performed as described in Rosdah et al.[25]. […] Cell death was determined by staining with 1 μg/mL propidium iodide and 3 μg/mL Hoechst 33258. The number of dead cells (propidium iodide positive) was counted and expressed as a percentage over total number of cells (Hoechst 33258 positive). At least 100 cells were counted per group for each independent experiment.
Mitochondrial morphology in HL-1 cells were visualised by immunostaining of mitochondrial Hsp60 antibody (Abcam, MA, USA). Images were acquired using Olympus BX60 fluorescence microscope at 600 × magnification and analysed using Fiji imaging software (ImageJ v1.53c). […] At least 100 cells were analysed for each treatment group.

In test [2] the test system is human iPSC-derived cardiomyocytes. Description: Doxorubicin-induced cardiomyocyte injury, LDH release. Format: cell-based. As to conditions: DRP1i27 50 µM in combination with doxorubicin 5 µM, 2 days. As for the experimental part:
Cardiomyocytes were derived from human induced pluripotent stem cells (iPSCs, CERA007c6 cell line) as previously described with modifications[26],[27]. Briefly, human iPSCs were seeded onto Matrigel (Corning) coated plates at a density of 1.25 × 10^5 cells/cm^2 in TeSR-E8 medium supplemented with 10 μM Y−27632 (Abcam). After 48 h (cells ~ 90% confluent) (day 0), medium was replaced with RPMI-1640 basal medium (Thermo Fisher Scientific) containing B-27 without insulin supplement (Thermo Fisher Scientific), growth factor reduced Matrigel (1:60 dilution) and 10 μM CHIR99021 (Cayman Chemical). At day 1, medium was replaced with RPMI 1640 basal medium containing B-27 without insulin supplement. […]
Enriched cardiomyocytes were replated onto Matrigel-coated 48-well plates at a cell density of 5 × 10^4 cells/cm^2 for 2 days. […] LDH levels in the conditioned media were assessed using a colorimetric CyQUANT LDH Cytotoxicity Assay Kit (Thermo Fisher Scientific) according to manufacturer’s protocol. […] Following the incubation at room temperature for 30 min in the dark, 50 μL of Stop Solution was added and absorbance was measured at 490 nm and 680 nm on a microplate spectrophotometer (Bio-Rad). All readings were then corrected for the background signal from the culture media and expressed as fold change.
On the technique in general: LDH leaks from cells whose membrane has failed.

Test [3] deals with HL-1 cells. The test can be described thus: Simulated ischaemia-reperfusion injury, cell death. Format: cell-based, Murine. The note with it: 50 µM during simulated ischaemia-reperfusion; DMSO 29.55 ± 5.45%. As for the experimental part: as §1, with “al.[25]. To simulate ischaemia, cells were cultured in ischaemic buffer (25 mM NaHEPES, 1 mM KH2PO4, 10 mM NaHCO3, 74 mM NaCl, 1.2 mM MgCl2.6H2O, 16 mM KCl, 1.2 mM CaCl2, 10 mM 2-deoxy-d-glucose) and hypoxia (< 0.1% O2) was induced in an airtight GENBox anaerobic chamber containing a Genbox Anaer generator sachet (BioMérieux, Marcy l’Etoile, France) at 37 °C.” for “al.[25].”

The target in the next test is T1, human Drp1 isoform 3 (Homo sapiens, UniProt O00429).
T1 construct: His tag; made in house; host or cells: E. coli Rosetta (DE3), pET21b vector
T1 sequence (O00429 1-699 isoform O00429-4): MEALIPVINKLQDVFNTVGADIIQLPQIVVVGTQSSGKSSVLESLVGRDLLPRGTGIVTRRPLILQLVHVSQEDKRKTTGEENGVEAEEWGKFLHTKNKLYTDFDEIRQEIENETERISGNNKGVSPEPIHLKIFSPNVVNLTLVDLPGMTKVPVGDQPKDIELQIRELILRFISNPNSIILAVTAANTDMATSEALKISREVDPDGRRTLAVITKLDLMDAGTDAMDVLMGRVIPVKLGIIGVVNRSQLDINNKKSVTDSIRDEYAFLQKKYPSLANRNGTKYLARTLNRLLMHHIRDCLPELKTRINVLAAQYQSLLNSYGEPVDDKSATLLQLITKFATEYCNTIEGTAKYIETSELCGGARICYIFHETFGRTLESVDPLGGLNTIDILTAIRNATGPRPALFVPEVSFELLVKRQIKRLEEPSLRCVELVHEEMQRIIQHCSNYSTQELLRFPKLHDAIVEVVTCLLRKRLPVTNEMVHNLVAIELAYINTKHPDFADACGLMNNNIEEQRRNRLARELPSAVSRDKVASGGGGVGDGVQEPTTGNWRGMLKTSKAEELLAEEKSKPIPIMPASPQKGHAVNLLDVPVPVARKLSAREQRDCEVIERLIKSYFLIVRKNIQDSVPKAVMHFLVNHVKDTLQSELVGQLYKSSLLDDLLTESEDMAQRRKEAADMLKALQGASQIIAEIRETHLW
Description: Drp1 GTPase activity, colorimetric malachite green assay. Format: biochemical. Here is the method:
The GTPase activity of Drp1, which is required for the latter to mediate mitochondrial fission, was examined using the colorimetric GTPase assay kit (Innova Biosciences, Cambridge, UK) according to the manufacturer’s instructions. Compounds were diluted in DMSO (all with a final concentration of 0.1% DMSO). Recombinant human Drp1 protein isoform-3 (final concentration 0.25 ng/µL) was diluted in assay buffer containing 50 mM Tris HCl (pH 7.5) and 2.5 mM MgCl2, followed by incubation with compounds for 15 min at 37 °C in a 96 well plate. 0.5 mM GTP, diluted in assay buffer, was then added into the mixture followed by incubation at 37 °C for 30 min.
Upon binding to Drp1, GTP is hydrolysed into GDP and free phosphate (Pi)[24]. Therefore, the degree of GTPase inhibition was assessed by measuring the concentration of Pi released into the assay buffer, which is detected by a malachite green-based dye. The intensity of Pi-dye complex was assessed by measuring the light absorbance at 635 nm wavelength using a microplate reader (BenchMark Plus, MS, USA). Absorbance of each experimental group was normalised to the vehicle control (DMSO).

The subject of test [4] is Human foreskin fibroblasts. The test can be described thus: Mitochondrial morphology analysis in human fibroblasts. Format: cell-based. Here is the method: Human foreskin fibroblasts and Drp1 wildtype and KO MEF (kindly provided by Professor Hiromi Sesaki, Johns Hopkins University, USA)[28],[29] were transduced with pAS2.EYFP.puro lentiviruses (RNAiCore, Academia Sinica, Taiwan) carrying the mitochondrial-targeted EGFP sequence as described in Kalkhoran et al.[30]. Cells were then treated with DRP1i27 (5, 10 or 50 µM) or 0.1% DMSO vehicle control for 24 h.
Mitochondrial morphology in HL-1 cells were visualised by immunostaining of mitochondrial Hsp60 antibody (Abcam, MA, USA). Images were acquired using Olympus BX60 fluorescence microscope at 600 × magnification and analysed using Fiji imaging software (ImageJ v1.53c). Cells were categorised into predominantly (> 50%) having fused or fragmented mitochondria. At least 100 cells were analysed for each treatment group.

Consider `Cc1nc[nH]c1CN1C[C@@H]2CC[C@H](C1)N(Cc1ccc(-c3cc[nH]n3)o1)C2` [DRP1i27], for which, in the test with HL-1 cells [1], the “percentage of cells with fragmented mitochondria” value is given as 36.62 ± 7.37%. Moreover, the LDH release in test [2] amounted to 3.13 ± 0.16 fold change. This compound also came in with a cell death with HL-1 cells [3] of 15.17 ± 3.67%. Further, at human Drp1 isoform 3 (5 µM), the “inhibition of GTPase activity of human Drp1” value is reported as “statistically significant reduction”. For the same compound, the “inhibition of the conversion of GTP to GDP” value at human Drp1 isoform 3 (5–50 µM) is on record as “trend of inhibition”. Also, in test [4] (basal condition, compared to DMSO control), the “percentage of cells with elongated mitochondria” value is “significant increase”. Also, in test [4] (human fibroblasts, 5, 10 or 50 µM, 24 h), the “cellular networks of mitochondria” value is reported as “increase cellular networks of mitochondria”.
